According to publication PMC9981206 (Cancer Research Communications, 2022):
Values joined by “and” are separate entries in the source; they are usually repeats but may differ in a detail not shown here. Identical values can stand only once. Like-named read-outs stand apart in the source and are kept apart here.

Assays:
WNT/β-catenin signaling = assay: Immunoblot and real-time qRT-PCR, WNT/β-catenin signaling in cancer cell lines; type: cell-based, human; details: 10 nmol/L, 24 hours
Excerpt: (§1) The cell cultures were kept below 20 passages (∼10 weeks) and routinely monitored (upon thawing and monthly) for Mycoplasma infections with MycoAlert Mycoplasma Detection Kit (Lonza). All cell lines were authenticated by short tandem repeat profiling to confirm their identity (Eurofins). TNKS1/2 and PARP1 biochemical assays ([27, 32]), luciferase-based WNT/β-catenin signaling pathway reporter assay ([22, 27, 32]), anti-proliferative assays, and NCI-60 tumor cell line panel screen ([7]), immunoblot analyses ([7, 32, 39]), RNA isolation, and real-time qRT-PCR ([7, 27, 39, 40]) were performed as previously described.
Prostate (Pro) and central nervous system (CNS). […] Mean ± SD values for data from one representative experiment of more than three repeated assays, each with six replicates, are shown. C, Evaluation of WNT/β-catenin signaling. Left, immunoblots of cytoplasmic AXIN1 and nuclear active form of β-catenin [non-phospho (Ser33/37/Thr41)] and total β-catenin. Lamin B1 loading controls are duplicated for OVCAR-4 immunoblots. Right, real-time RT-qPCR analysis of the WNT/β-catenin signaling target gene AXIN2. […] Immunoblots show representative data from two or more independent experiments. Actin (cytoplasm) and lamin B1 (nucleus) were used as loading controls. Boxplots show median, first, and third quartiles and maximum and minimum whiskers for combined data from three independent experiments with three replicates each. Stippled lines (black) depict control mean values = 1. Two-tailed t tests: ***, P < 0.001; **, P < 0.01; and *, P < 0.05. Mann–Whitney rank sum tests: ‡, P < 0.01. ns., not significant. D, Evaluation of YAP signaling. Left, immunoblots of cytoplasmic AMOTL2 (top) and nuclear YAP and TAZ (bottom). Right, real-time RT-qPCR analysis of the YAP signaling target genes AMOTL2, CCN1, and […]. For D and E, lamin B1 loading controls are duplicated for RKO immunoblots (YAP/TAZ and CCND1). E, Evaluation of MYC signaling. Left, immunoblots of nuclear MYC and CCND1. Lamin B1 loading controls are duplicated for ABC-1 immunoblots. […]

[1] = 28-day oral repeated dose toxicity study; type: in vivo, mice
Procedure: Body weight and food consumption were measured thrice weekly. For the experiment using 10 mg/kg oral–twice daily dosing, blood was collected at the end of the experiment and hematologic and clinical biochemistry analyses were performed at IDEXX according to their standard protocols. Duodenum, jejunum, ileum, colon–rectum, lymph nodes, pancreas, heart, kidney, liver, spleen, lung, prostate, and testis were collected, formalin-fixed (10%), paraffin-embedded, stained with hematoxylin and eosin (H&E), and imaged as previously described ([39]). Staining of ileums using immunofluorescence was performed as previously described ([29, 39]). […] DAPI nuclear dye [(340 nm), 1 μg/μL, D9542, Sigma Aldrich] was added to the final washing solution. […] Imaging was performed using confocal microscopy as described previously ([39]). All animal experiments were approved by local animal experiment authorities (ethics committee of the Chinese Association for Laboratory Animal Sciences, German Centre for the Protection of Laboratory Animals, and Norwegian Food Safety Authority), and were carried out in compliance with FELASA guidelines and recommendations.

OVCAR-4 cells = assay: MTS colorimetric cell growth assay, OVCAR-4; type: cell-based, human
Excerpt: as §1
(§2) Prostate (Pro) and central nervous system (CNS). […] Mean ± SD values for data from one representative experiment of more than three repeated assays, each with six replicates, are shown. C, Evaluation of WNT/β-catenin signaling. Left, immunoblots of cytoplasmic AXIN1 and nuclear active form of β-catenin [non-phospho (Ser33/37/Thr41)] and total β-catenin. Lamin B1 loading controls are duplicated for OVCAR-4 immunoblots. Right, real-time RT-qPCR analysis of the WNT/β-catenin signaling target gene AXIN2. […] Immunoblots show representative data from two or more independent experiments. Actin (cytoplasm) and lamin B1 (nucleus) were used as loading controls. […]

UO-31 cells = assay: MTS colorimetric cell growth assay, UO-31; type: cell-based, human
Excerpt: as §1, §2

PARP1 = PARP1 (Homo sapiens, UniProt P09874); details: biochemical assay; cited from earlier work
YAP signaling = assay: Immunoblot and real-time qRT-PCR, YAP signaling in cancer cell lines; type: cell-based, human; details: 10 nmol/L, 24 hours
Excerpt: as §1, §2

B16-F10 tumors = assay: B16-F10 mouse melanoma model
Procedure: The experiment using B16-F10 tumors was carried out as previously described ([39]) at Reaction Biology. […] Next, the mice were sacrificed, approximately 8 hours after last dosing. Protein and RNA extracts were prepared from 8 tumors within each treatment group.

ABC-1 cells = assay: MTS colorimetric cell growth assay, ABC-1; type: cell-based; details: Homo sapiens, ABC-1, 120 h
Excerpt: as §1, §2

MYC signaling = assay: Immunoblot and real-time qRT-PCR, MYC signaling in cancer cell lines; type: cell-based, human; details: 10 nmol/L, 24 hours, all TNKSi-sensitive cell lines
Excerpt: as §1, §2

[2] = tested on: RKO colon carcinoma cells; details: 5 days of cultivation; cited from earlier work
[3] = Dose escalation experiment (acute toxicity, MTD); details: 500, 1,000, 1,500, or 2,000 mg/kg oral twice daily, single male CD-1 mice
Procedure: The dose escalation experiment was performed in single male CD-1 mice (CRL: 022, RRID: IMSR_CRL: 022, Charles River) at BSL BIOSERVICE/Eurofins using their standard protocol. […] Body weight was recorded daily.

[4] = Mouse pharmacokinetic analysis; type: in vivo; details: CD-1 mice; for MRT last: read-out: MRT(0-24); for CL/F: read-out: Cl or Cl/F (converted); for bioavailability: read-out: F (fraction absorbed/bioavailability)
Procedure: The pharmacokinetic analyses were performed according to the standard protocols of Medicilon as previously described ([22, 27, 32]). […] The same vehicle and oral–twice daily treatment regime were used for all other experiments. Samples were collected after 15 and 30 minutes plus 1, 2, 4, and 6 hours for group 1, and after 6.5, 8, 10, and 24 hours for group 2.

[5] = 10 mg/kg oral twice daily, 28 days, CD-1 mice
[6] = 10 mg/kg oral twice daily, 28 days, CD-1 mice, clinical biochemistry
[7] = 10 mg/kg oral twice daily, 28 days, CD-1 mice, hematology
[8] = 10 mg/kg oral twice daily, immunoblot
[9] = mouse, plasma, 0.4 mg/kg IV BID
[10] = mouse, plasma, 100 mg/kg PO BID

PARP1, sequence (P09874 whole entry): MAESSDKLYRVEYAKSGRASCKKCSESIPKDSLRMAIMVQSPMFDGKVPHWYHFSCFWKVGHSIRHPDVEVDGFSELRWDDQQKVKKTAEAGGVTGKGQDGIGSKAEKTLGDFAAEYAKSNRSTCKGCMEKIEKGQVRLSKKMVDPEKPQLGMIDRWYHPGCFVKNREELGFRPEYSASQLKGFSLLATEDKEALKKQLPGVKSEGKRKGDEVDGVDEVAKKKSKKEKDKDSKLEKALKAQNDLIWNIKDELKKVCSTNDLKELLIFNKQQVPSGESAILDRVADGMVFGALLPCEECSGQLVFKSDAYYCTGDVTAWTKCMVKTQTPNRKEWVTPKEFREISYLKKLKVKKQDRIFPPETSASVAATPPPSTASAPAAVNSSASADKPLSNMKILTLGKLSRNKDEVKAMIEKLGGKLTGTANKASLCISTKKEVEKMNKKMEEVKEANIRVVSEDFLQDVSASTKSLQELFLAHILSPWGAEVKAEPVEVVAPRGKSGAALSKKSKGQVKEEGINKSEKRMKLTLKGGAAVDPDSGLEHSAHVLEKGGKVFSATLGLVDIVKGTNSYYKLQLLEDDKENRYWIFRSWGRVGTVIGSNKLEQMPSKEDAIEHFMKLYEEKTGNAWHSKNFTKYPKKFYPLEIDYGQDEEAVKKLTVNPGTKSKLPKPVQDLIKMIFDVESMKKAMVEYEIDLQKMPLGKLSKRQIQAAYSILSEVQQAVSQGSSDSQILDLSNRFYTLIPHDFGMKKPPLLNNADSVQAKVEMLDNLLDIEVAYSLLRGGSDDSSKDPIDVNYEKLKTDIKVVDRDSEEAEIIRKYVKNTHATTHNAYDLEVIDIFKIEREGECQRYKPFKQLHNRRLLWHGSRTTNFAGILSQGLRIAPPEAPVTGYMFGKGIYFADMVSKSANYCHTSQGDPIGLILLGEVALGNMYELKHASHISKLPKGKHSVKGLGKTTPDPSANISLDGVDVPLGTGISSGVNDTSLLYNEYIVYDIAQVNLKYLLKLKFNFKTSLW

**Q.** Which results are given for CCOc1ccc(-c2nnc([C@H]3C[C@H](NC(=O)c4cccc5nccnc45)C3)n2-c2ccccc2F)nc1 [OM-153]?
**A.** transcription of AXIN2 (WNT/β-catenin signaling; COLO 320DM, OVCAR-4 and ABC-1 cells): significantly reduced; AXIN1 protein (WNT/β-catenin signaling; all cell lines (COLO 320DM, UO-31, OVCAR-4, ABC-1, RKO)): stabilized; transcriptionally active form of β-catenin in the nuclei (WNT/β-catenin signaling; only in COLO 320DM and ABC-1 cells): reduction; clinical signs, body weight, food consumption [1, 5]: no clinical signs, body weight loss, or reduced food consumption were observed; histopathology of other organs [1, 5]: No atypical histopathologic changes; overall intestinal architecture [1, 5]: intact; expression of the ISC marker and WNT/β-catenin signaling target gene Lgr5 in ileum ([1]; 10 mg/kg oral twice daily, 28 days, CD-1 mice, RNAscope): reduced; AST, ALT and GLDH levels [1, 6]: insignificant alteration; magnesium, potassium, and triglycerides [1, 6]: significant decreases; erythrocytes and hemoglobin [1, 7]: moderate but significant reduction; leukocytes and reticulocytes [1, 7]: tendency toward reduced; histopathology of the other organs ([1]; 100 mg/kg oral twice daily, C57BL/6J mice): No abnormal histopathologic changes; small intestine histopathology ([1]; 100 mg/kg oral twice daily, C57BL/6J mice, 2 out of three mice): loss of villi height, width, crypt, and as well as surface epithelium, accompanied by inflammation; clinical observation and body weight ([1]; 100 mg/kg oral twice daily, C57BL/6J mice, euthanized on day 7): reduced activity and body weight loss in 3 of 4 mice; kidney histopathology ([1]; 100 mg/kg oral twice daily, C57BL/6J mice, same mice as intestinal damage): signs of acute tubular damage in the kidney; GI50 (OVCAR-4 cells; Homo sapiens, OVCAR-4, 120 h): > 10 nM; GI25 (OVCAR-4 cells; OVCAR-4, 5 days): 2.5 nM; GI50 (UO-31 cells; Homo sapiens, UO-31, 120 h): > 10 nM; GI25 (UO-31 cells; UO-31, 5 days): 3.5 nM; IC50 (PARP1): > 100000 nM; transcription of YAP signaling target genes AMOTL2, CCN1 and CCN2 (YAP signaling; all TNKSi-sensitive cell lines): reduced transcription; AMOTL2 protein (YAP signaling; all cell lines): cytoplasmic stabilization; AXIN1 protein in tumors (B16-F10 tumors; [8]): significant stabilization; β-catenin in tumors (B16-F10 tumors; [8]): insignificant downregulation; transcription of the target gene Axin2 in tumors (B16-F10 tumors; 10 mg/kg oral twice daily, real-time qRT-PCR): significantly decreased; tumor end volume inhibition compared with the vehicle control (B16-F10 tumors; 0.1–10 mg/kg OM-153 oral twice daily in combination with anti–PD-1 (10 mg/kg i.p. day 6, 9, 12)): 51%–65%; body weights (B16-F10 tumors; any of the treatment groups, day 6 through 20): No alterations in body weights; antitumor effect, monotherapy controls (B16-F10 tumors; monotherapy, 10 mg/kg): did not exert any significant antitumor effects; GI50 (ABC-1 cells): 2 nM; MYC and CCND1 protein and transcription of MYC and CCND1 (MYC signaling): decreased; GI50 [2]: > 10000 nM; RKO GI25 [2]: > 10,000 nmol/L; clinical signs of systemic toxicity [3]: No clinical signs of systemic toxicity; Cmax2 ([4]; 10 mg/kg PO BID): 2,700 ng/mL; Cmax2 (plasma concentration after the second dose) ([4]; 10 mg/kg oral twice daily): 5.3 µM; plasma concentration after 24 hours ([4]; 10 mg/kg oral twice daily): below the detection threshold; Cmax2 ([4]; 100 mg/kg PO BID): 20,000 ng/mL; Cmax2 (plasma concentration after the second dose) ([4]; 100 mg/kg oral twice daily): 39.2 µM; half-life [4, 9]: 0.59 h; MRT last [4, 9]: 3.6 h; half-life ([4]; mouse, plasma, 2 mg/kg IV BID): 0.56 h; MRT last ([4]; mouse, plasma, 2 mg/kg IV BID): 3.5 h; half-life ([4]; mouse, plasma, 10 mg/kg PO BID): 2.7 h; CL/F ([4]; mouse, plasma, 10 mg/kg PO BID): 16.7 mL/min/kg; bioavailability ([4]; mouse, plasma, 10 mg/kg PO BID): 100%; MRT last ([4]; mouse, plasma, 10 mg/kg PO BID): 5.8 h; half-life [4, 10]: 5.9 h; CL/F [4, 10]: 18.3 mL/min/kg; bioavailability [4, 10]: 130%; MRT last [4, 10]: 8.4 h; concentration at 24 h ([4]; mouse, plasma, 100 mg/kg oral twice daily, read-out: plasma concentration after 24 hours): 1900 ng/mL and 3.7 µM
